Results: patent publication US12383512B2, “Cannabidiol-type cannabinoid compound” (Jazz Pharmaceuticals Research UK LImited, priority 2019, dated 2025)
Like-named read-outs stand apart in the source and are kept apart here.

Experiment: Plasma and brain pharmacokinetics after single intravenous or intraperitoneal administration to the mouse
Format: in vivo
Conditions: for Kp: brain/plasma, other: intravenous and intraperitoneal, all IV and IP dose groups
From the text: The objective of this study was to determine brain and plasma pharmacokinetic parameters of 6-OH CBD following a single intravenous or intraperitoneal administration of 6-OH CBD to the mouse; and to determine brain: plasma concentration ratios for 6-OH CBD.
Ninety-nine male mice each received a single intravenous or intraperitoneal dose of 6-OH CBD, as detailed below in Table 3.
For each formulation, 6-OH CBD was formulated at the required concentration in ethanol: Kolliphor EL (Cremophor EL): 0.9% (w/v) Saline (1:1:18, v/v/v).
Each animal received a single intravenous administration, via a tail vein, at a nominal dose volume of 2 mL/kg or a single intraperitoneal administration at a nominal dose volume of 5 mL/kg.
Following dosing, terminal blood samples were collected from each animal via cardiac puncture, and brains were excised, at each of the following time points: • Intravenous groups: 7, 15 and 30 minutes, 1, 2, 4, 8, 12 and 24 hours; • Intraperitoneal groups: 15 and 30 minutes, 1, 2, 4, 8, 12 and 24 hours.
Blood was collected into tubes containing lithium heparin anticoagulant and centrifuged to prepare plasma. Brain samples were frozen on dry ice, then weighed and stored deep frozen prior to bioanalysis. The remaining carcasses were discarded. Plasma was stabilised with an equal volume of ascorbic acid solution, then stored deep frozen prior to bioanalysis.
Stabilised plasma samples were analysed to determine the concentrations of 6-OH CBD, using qualified LC-MS/MS methods. The results of these analyses were evaluated to determine non-compartmental pharmacokinetic parameters.
The following parameters were determined: • Cmax Maximum concentration observed. • Tmax Time of maximum observed concentration. • AUC0-t Area under the concentration-time curve from hour 0 to the last quantifiable concentration, estimated by the linear trapezoidal rule. • AUC0-24 Area under the concentration-time curve from hour 0 to hour 24, estimated using the linear trapezoidal rule. • t1/2 Elimination half-life, determined as In(2)/λz. • Cl Clearance, calculated (for intravenous doses only) as Dose/AUC0-inf. • Vss Volume of distribution, based on the terminal elimination phase, calculated (for intravenous doses only) as Cl/λz. • Fabs Absolute bioavailability of the intraperitoneal dose.

Structure (SMILES): C=C(C)[C@@H]1CC(O)C(C)=C[C@H]1c1c(O)cc(CCCCC)cc1O (stereo partly drawn) [6-OH CBD, Alpha 6-hydroxy cannabidiol]
- increase in brain AUC0-24 for a 10-fold increase in dose level (brain, IP 3 to 30 mg/kg): 32.6 fold
- increase in brain Cmax for a 10-fold increase in dose level (brain, IP 3 to 30 mg/kg): 15.8 fold
- Cmax (male, brain, IP 3 mg/kg): 0.851 µg/mL
- Cmax (male, brain, IP 10 mg/kg): 3.68 µg/mL
- Cmax (male, brain, IP 30 mg/kg): 13.5 µg/mL
- Cmax (male, brain, IV 1 mg/kg): 1.58 µg/mL
- AUC(0-t) (male, brain, ip, 3 mg/kg, brain, IP 3 mg/kg, read-out: AUC0-24): 0.768 µg·h/mL
- AUC(0-t) (male, brain, ip, 3 mg/kg, brain, IP 3 mg/kg, read-out: AUC0-t): 0.756 µg·h/mL
- Tmax (male, brain, ip, 3 mg/kg, brain, IP 3 mg/kg, read-out: Tmax (converted)): 30 min
- half-life (male, brain, ip, 3 mg/kg, brain, IP 3 mg/kg, read-out: t1/2 (converted)): 34.1 min
- AUC(0-t) (male, brain, ip, 10 mg/kg, brain, IP 10 mg/kg, read-out: AUC0-24): 3.94 µg·h/mL
- AUC(0-t) (male, brain, ip, 10 mg/kg, brain, IP 10 mg/kg, read-out: AUC0-t): 3.75 µg·h/mL
- Tmax (male, brain, ip, 10 mg/kg, brain, IP 10 mg/kg, read-out: Tmax (converted)): 15 min
- half-life (male, brain, ip, 10 mg/kg, brain, IP 10 mg/kg, read-out: t1/2 (converted)): 42.4 min
- AUC(0-t) (male, brain, ip, 30 mg/kg, brain, IP 30 mg/kg, read-out: AUC0-24): 25 µg·h/mL
- AUC(0-t) (male, brain, ip, 30 mg/kg, brain, IP 30 mg/kg, read-out: AUC0-t): 25 µg·h/mL
- Tmax (male, brain, ip, 30 mg/kg, brain, IP 30 mg/kg, read-out: Tmax (converted)): 60 min
- half-life (male, brain, ip, 30 mg/kg, brain, IP 30 mg/kg, read-out: t1/2 (converted)): 55.1 min
- half-life (male, brain, ip, brain, IP administration 3-30 mg/kg, read-out: t1/2 range): 34.1 to 55.1 min
- Tmax (male, brain, ip, brain, after IP dosing (3-30 mg/kg), read-out: Tmax range): 15 to 60 min
- AUC(0-t) (male, brain, iv, 1 mg/kg, brain, IV 1 mg/kg, read-out: AUC0-24): 0.69 µg·h/mL
- AUC(0-t) (male, brain, iv, 1 mg/kg, brain, IV 1 mg/kg, read-out: AUC0-t): 0.679 µg·h/mL
- Tmax (male, brain, iv, 1 mg/kg, brain, IV 1 mg/kg, read-out: Tmax (converted)): 7.02 min
- half-life (male, brain, iv, 1 mg/kg, brain, IV 1 mg/kg, read-out: t1/2 (converted)): 18.7 min
- Kp (male, read-out: Brain: plasma ratio for AUC0-24, range): 1.41 to 2.01
- Kp (male, read-out: Brain: plasma ratio for Cmax, range): 1.23 to 2.03
- Cmax (male, plasma, IP 3 mg/kg): 0.658 µg/mL
- Cmax (male, plasma, IP 10 mg/kg): 2.55 µg/mL
- Cmax (male, plasma, IP 30 mg/kg): 11 µg/mL
- Cmax (male, plasma, IV 1 mg/kg): 0.775 µg/mL
- clearance (male, plasma, IV 1 mg/kg): 2.92 L/h/kg
- Vd (male, plasma, IV 1 mg/kg, read-out: Vss): 1.9 L/kg
- AUC(0-t) (male, plasma, ip, 3 mg/kg, plasma, IP 3 mg/kg, read-out: AUC0-24): 0.535 µg·h/mL
- AUC(0-t) (male, plasma, ip, 3 mg/kg, plasma, IP 3 mg/kg, read-out: AUC0-t): 0.533 µg·h/mL
- Tmax (male, plasma, ip, 3 mg/kg, plasma, IP 3 mg/kg, read-out: Tmax (converted)): 15 min
- half-life (male, plasma, ip, 3 mg/kg, plasma, IP 3 mg/kg, read-out: t1/2 (converted)): 59.6 min
- AUC(0-t) (male, plasma, ip, 10 mg/kg, plasma, IP 10 mg/kg, read-out: AUC0-24): 2.6 µg·h/mL
- AUC(0-t) (male, plasma, ip, 10 mg/kg, plasma, IP 10 mg/kg, read-out: AUC0-t): 2.59 µg·h/mL
- Tmax (male, plasma, ip, 10 mg/kg, plasma, IP 10 mg/kg, read-out: Tmax (converted)): 15 min
- half-life (male, plasma, ip, 10 mg/kg, plasma, IP 10 mg/kg, read-out: t1/2 (converted)): 64.8 min
- AUC(0-t) (male, plasma, ip, 30 mg/kg, plasma, IP 30 mg/kg, read-out: AUC0-24): 17.7 µg·h/mL
- AUC(0-t) (male, plasma, ip, 30 mg/kg, plasma, IP 30 mg/kg, read-out: AUC0-t): 17.7 µg·h/mL
- Tmax (male, plasma, ip, 30 mg/kg, plasma, IP 30 mg/kg, read-out: Tmax (converted)): 15 min
- half-life (male, plasma, ip, 30 mg/kg, plasma, IP 30 mg/kg, read-out: t1/2 (converted)): 57.5 min
- Tmax (male, plasma, ip, 30 mg/kg, plasma, IP 3, 10 or 30 mg/kg (each dose level), read-out: Tmax (converted)): 15 min
- half-life (male, plasma, ip, 30 mg/kg, plasma, IP 3, 10 or 30 mg/kg, read-out: t1/2 range across dose levels): 59.6 to 64.8 min
- AUC(0-t) (male, plasma, iv, 1 mg/kg, plasma, IV 1 mg/kg, read-out: AUC0-24): 0.343 µg·h/mL
- AUC(0-t) (male, plasma, iv, 1 mg/kg, plasma, IV 1 mg/kg, read-out: AUC0-t): 0.342 µg·h/mL
- Tmax (male, plasma, iv, 1 mg/kg, plasma, IV 1 mg/kg, read-out: Tmax (converted)): 7.02 min
- half-life (male, plasma, iv, 1 mg/kg, plasma, IV 1 mg/kg, read-out: t1/2 (converted)): 27.1 min
- Fabs (plasma, IP 3 mg/kg): 52.1%
- Fabs (plasma, IP 10 mg/kg): 75.8%
- Fabs (plasma, IP 30 mg/kg): 173%
- increase in plasma AUC0-24 for a 10-fold increase in dose level (plasma, IP 3 to 30 mg/kg): 33.2 fold
- increase in plasma Cmax for a 10-fold increase in dose level (plasma, IP 3 to 30 mg/kg): 16.7 fold
